Test results: a melting point compilation (Tetko et al.; mined from patent text by program, amines drawn as free bases though some values may be those of a salt)

| SMILES | melting point |
| --- | --- |
| O=C1N(Cc2ccc(C(F)(F)F)o2)c2ccc(F)cc2C12COc1cc3c(cc12)OCO3 (stereo unspecified) | 139 to 141 °C |
| Cc1c[nH]c(C)c1-c1nc2ccc(C(=O)c3ccccc3)cc2[nH]1 | 207 to 214 °C |
| N#CC(CCC(=O)O)(CC(=O)O)c1ccc(Cl)c(Cl)c1 (stereo unspecified) | 152 °C |
| CCNC(=O)C1CCN(Cc2cnc3cc(NC(=O)c4ccc(-c5ccc(F)cc5)cc4)c(C)cc3c2)CC1 | 254 °C |
| Nc1ccccc1NC(=O)Nc1ccc(-c2ccc(C(=O)N3CCN4CCC3CC4)o2)cc1 | 174 °C |
| CCn1c(C)nc2c(C3=NC(C)(C(C)C)C(=O)N3)c(C(=O)OC)ccc21 (stereo unspecified) | 189 to 191 °C |
| O=C(O)C(Cc1ccc2c(c1)OCO2)Cc1ccc2c(c1)OCO2 | 191 to 193 °C |
| COCc1nc2c(N)nc3ccccc3c2n1CC(C)(C)OCCS(C)(=O)=O | 186 to 189 °C |
| COc1c(C)c(CO)c(OC)c2ccccc12 | 116 to 117 °C |
| CN(C)c1ccc(/C=C/c2cc(/C=C/c3ccc4cc[nH]c4c3)[nH]n2)cc1 | 224 to 227 °C |
| Cc1cc(-c2ccc(F)cc2)ccc1C(=O)Nc1ccc2cc(CN3CCCC3)cnc2c1C | 200 to 203 °C |
| Cc1ccc(SN(C)C(=O)Oc2cccc3c2OC(C)(C)C3)cc1 | 62 °C |
| O=C(/C(=C\c1ccc(I)cc1)Sc1ccc(Br)cc1)c1ccc(Br)cc1 | 128 to 130 °C |
| CC(O)CN1CCCC(c2cccs2)=N1 (stereo unspecified) | 74 to 77 °C |
| CC(=O)c1ccc(-c2ccccc2)cc1O | 90 to 92 °C |
| Nc1cccc(CN2CCN(C(c3ccccc3)c3ccccc3)CC2)n1 | 144 to 145 °C |
| OC1CSC(Oc2cc(-c3ccncc3)ccc2Cl)C(O)C1O (stereo unspecified) | 189 °C |
| CCSc1c(C#N)nn(-c2c(Cl)cc(C(F)(F)F)cc2Cl)c1Br | 134 to 140 °C |
| CCCCOc1ccc(NC(=O)Nc2ccc(S(N)(=O)=O)cc2)cc1 | 236 to 239 °C |
| Cc1ccc2cccc(N3CCNCC3)c2n1 | 163 to 164 °C |
| Cc1cccc(-n2nc(C)c3c(=O)c4cc(F)c(F)cc4[nH]c32)n1 | 301 to 302 °C |
| O=C(O)c1cc(OCc2ccc(Cl)cc2)c(C(=O)c2ccccc2)c([N+](=O)[O-])c1 | 253 to 254 °C |
| CC(=O)Nc1nc(CCc2ccc(N)cc2)c(C(=O)NCc2ccc(S(C)(=O)=O)cc2)s1 | 78 to 80 °C |
| Cn1cc(C(N)=O)c(=O)c2ccc(C(F)(F)F)cc21 | 288 to 292 °C |
| COc1ccc(C(=O)c2cc([N+](=O)[O-])ccc2N2CCC(C)CC2)cc1 | 119 °C |

| SMILES | melting point |
| --- | --- |
| CC=NOCc1nc2c(N)nc(C)c(C)c2n1CCCCNC(=O)c1ccccc1 | 192 to 194 °C |
| O=C(O)C1CCc2c(c3cc(F)ccc3n2C(=O)c2ccc(F)cc2)C1 (stereo unspecified) | 195 to 196 °C |
| O=C(O)c1cn(-c2ccc(Br)cc2)c(-c2ccc(Cl)cc2Cl)n1 | 138 to 142 °C |
| CC(=O)N1CCN(c2ccn3nc(-c4ccccc4)c(-c4ccc(=O)n(C(C)C)n4)c3c2)CC1 | 148 to 149 °C |
| CCC(=O)c1ccc(OCCCCl)cc1 | 41 to 43 °C |
| COc1c(F)c(Oc2cc(C(F)(F)F)nn2C)nc(Oc2cc(C(F)(F)F)nn2C)c1F | 83 °C |
| CCN1C(=O)CN=C(c2ccccc2F)c2cc(C(C)N)ccc21 (stereo unspecified) | 53 to 55 °C |
| CC(=O)c1ccc(OCC(O)CCCl)cc1 (stereo unspecified) | 75 to 77 °C |
| CN(C)CCOC(=O)C1CCc2c([nH]c3ccc(Cl)cc23)C1 (stereo unspecified) | 123 to 124 °C |
| Cc1nnc(-c2ccc3occ(-c4ccncc4)c3c2)o1 | 166 to 167 °C |
| CCC1=Cc2cc3c(cc2C(c2ccc(N)cc2)=NN1C(C)=O)OCO3 | 136 to 138 °C |
| CN1CCc2cc(O)c(O)c(Sc3ccc([N+](=O)[O-])cc3)c2CC1 | 125 to 127 °C |
| CC(C)NC(=S)N1CCc2c(ncn2C)C1 | 200 °C |
| CCOP(=O)(CC(=O)N1c2ccccc2NC(=O)c2ccccc21)OCC | 195 to 197 °C |
| CSc1ccc(C2=NNC(=O)CC2c2ccccc2)cc1 (stereo unspecified) | 213 to 214 °C |
| COC(=O)C(=O)CC(=O)c1ccccn1 | 86 to 87 °C |
| CCCCCCCCCCCCCCCCCCNS(=O)(=O)c1cccc(C(F)(F)F)c1 | 83 to 85 °C |
| O=c1cnc2c(NC(CO)CO)nc(SCc3cccc(Cl)c3F)nc2[nH]1 | 218 to 220 °C |
| O=c1[nH]c(=S)c2[nH]cnc2n1-c1ccccc1 | > 290 °C |
| O=C(O)c1sc(Cl)nc1C(F)(F)F | 131 to 132 °C |
| CCOCCS(=O)(=O)c1c(Cl)nc(Cl)nc1Cl | 133 to 134 °C |
| O=C1c2ccc(N3CCCC3)c3cc([N+](=O)[O-])cc(c23)C(=O)N1O | 290 to 291 °C |
| CC12CCC(C1)C1(C)Oc3ccc(C4(c5ccc(C(=O)O)cc5)OCCO4)cc3C21C (stereo unspecified) | 234 to 236 °C |
| COc1cc(NC(=S)Nc2ccccc2)ccc1NNC=O | 183 to 184 °C |

Other lines, results leading:

| melting point | SMILES |
| --- | --- |
| 120 to 125 °C | Cc1cn2cccc(OCc3c(Cl)ccc(S(=O)(=O)N4CCC[C@H]4C(=O)NCCCNC(=O)c4ccc(C=NN)cc4)c3Cl)c2n1 |
| 155 to 157 °C | O=[N+]([O-])c1ccc(NS(=O)(=O)c2ccccc2)c(Cl)c1 |
| 210 °C | Cc1c(C#N)[nH]n(-c2ccc(Cl)c(Cl)c2)c1=O |
| 105 to 107 °C | CC1(C)CON(CC2=C(Cl)CC(=NCc3ccccc3O)C=C2)C1=O |
| 87 to 90 °C | COC(=O)c1cccc(CCN(C)CCCC(C(=O)OC)(c2ccc(OC)c(OC)c2)C(C)C)c1 (stereo unspecified) |
| 137 to 140 °C | COc1ccc(C(CCCCl)=NNC(N)=S)cc1 |
| 89 to 91 °C | COc1ccc(C(O)Cc2nccnc2C)cc1 (stereo unspecified) |
| 158 °C | O=C(CCO)N[C@H]1CC[C@H](CCN2CCC(c3cccc4c3CCO4)CC2)CC1 |
| 120 to 122 °C | COc1ccc2cc(SCCC(=O)O)n(C)c2c1 |
| 88 to 90 °C | Cc1oc(-c2ccco2)nc1CCOc1ccc(N)cn1 |
| 104 to 105 °C | Cc1nc(NC(=O)c2cc(Cl)cc(Cl)c2)sc1C(=O)NCc1ccccc1 |
| 166 to 167 °C | O=C(CCC1CCCC1)Nc1ccc(NC(=O)CCC2CCCC2)c2c1C(=O)c1ccccc1C2=O |
| 77.8 °C | O=C(NCc1ncc(C(F)(F)F)cc1Cl)c1ccc(Br)o1 |
| 61 to 64 °C | COC(=O)[C@H](CC(C)C)NC(=O)[C@@H](CCSC)NC(=O)OC(C)(C)C |
| > 250 °C | N#Cc1cccc(-c2nc(Nc3cnccn3)sc2-n2cncn2)c1 |
| 230 to 236 °C | Cn1cc(C(=O)NCc2ccc(Cl)cc2)c(=O)c2cc(CN3CCOCC3)sc21 |
| 103 to 104 °C | CC1(C)CCC(Cc2ccc(Cl)cc2)C1(O)CO (stereo unspecified) |
| 236 to 238 °C | Nc1c2c(nc3ccccc13)CCCC2=O |
| 127 °C | COC(=O)C1OC(OC(=O)C(C)C)C(OC(=O)C(C)C)C(OC(=O)C(C)C)C1OC(=O)C(C)C (stereo unspecified) |
| 166 to 167 °C | CC(C)(C)c1ccc2c(c1)OC(C(F)(F)F)C(C(=O)O)=C2 (stereo unspecified) |
| 155 to 156 °C | O=C(CCCc1ccccc1)N[C@H](Cc1ccc(F)cc1)[C@@H](O)c1ccc(C(F)(F)F)cc1 (racemic) |
| 61 to 62 °C | O=C1NC(=O)C(Nc2ccc(CCNCC(O)COc3cccc4ccccc34)cc2)S1 (stereo unspecified) |
| 94 to 95 °C | O=C/C=C/c1cccc(Cl)c1Cl |
| 266 to 270 °C | NC(=O)CN(CCCc1ccc(F)cc1)C1CCC(c2ccc3[nH]c(=O)oc3c2)CC1 (stereo unspecified) |
| 138 to 140 °C | Cn1nnn(-c2c(Cl)ccc(C(=O)C3C(=O)CCCC3=O)c2Cl)c1=O |
| 62 to 62.5 °C | Brc1ccc(Cc2ccc(Br)cc2)cc1 |

| melting point | SMILES |
| --- | --- |
| 82 to 84 °C | CCOC(=O)c1c(C(F)(F)F)nc(C)c(-c2ccccc2)c1O |
| 146 to 147 °C | CC1CCCC=C1c1ccc(C(=O)O)cc1 (stereo unspecified) |
| 122 to 124 °C | CCC(CCCc1cccnc1)NC(=O)C(O)c1ccccc1 (stereo unspecified) |
| 217 to 218 °C | COc1cc2ncnc(N3CCN(C(=S)NCc4ccc(Br)cc4)CC3)c2cc1OC |
| 167 to 168 °C | COC(=O)C(c1cccc(Br)c1)c1ncnc2cc(OC)c(OC)cc12 (stereo unspecified) |
| 110 °C | COc1ccc(C(O)CN2CCNC2=S)cc1 (stereo unspecified) |
| 149 to 151 °C | COCCOc1cc(Cc2cnc(N)nc2N)cc2c1NCCC2 |
| 266 to 268 °C | CCCC(=O)c1cnc2c(OC)cccc2c1Nc1ccc(O)c(F)c1 |
| 157 to 158 °C | Cc1nn(-c2cc(O)c(Cl)cc2F)c(C)c1[N+](=O)[O-] |
| 161 to 163 °C | OCN1CCN=C1CC(c1ccccc1)c1ccccc1 |
| 132 to 134 °C | CC(=O)OCc1ccc(S(=O)(=O)c2ccc(C)nc2Nc2c(C)cc(C)cc2C)cc1 |
| 215 to 216 °C | CCOCc1nc2c(N)nc3ccccc3c2n1Cc1cc(-c2ccccc2)no1 |
| 118 to 119 °C | CC(=NOCCOc1ccc(CC2SC(=O)NC2=O)cc1)c1ccc(Cl)cc1 (stereo unspecified) |
| 139 to 141 °C | O=C1c2ccccc2-c2c1c1ccccc1c(=O)n2CCCCCCO |
| 122 °C | Cn1nnc(CC[C@H]2CC[C@@H](c3ccc(F)cc3)N2S(=O)(=O)c2ccc(Cl)cc2)n1 (racemic) |
| 100 to 105 °C | CCCCn1cc(-c2nnnn2C)c(=O)c2ccccc21 |
| 118 to 120 °C | O=C1CCC2CCCC3CC(=O)N1C23 (stereo unspecified) |
| 55 °C | COC(=O)CCCc1ccc(CNC(=O)C2Cc3ccccc3N2S(=O)(=O)c2ccc(-c3cccc(C(F)(F)F)c3)cc2)cc1 (stereo unspecified) |
| 135 to 136 °C | O=CNC1=NN(c2ccccc2)C(c2ccc(Cl)cc2)C1 (stereo unspecified) |
| 152 to 156 °C | COc1ccc(Cn2c(C)cc3cnnc(OCc4ccccc4)c32)cc1 |
| 91 to 93 °C | CCCCCCCCCCCCCCCCCCS(=O)c1cc2ccccc2cc1OC(C)=O (stereo unspecified) |
| 187 to 188 °C | COc1cc(OC)c2c(=O)[nH]c(-c3ccc4[nH]c(CN(C)C)cc4c3)nc2c1 |
| 110 °C | O=C(O)CN(C(=O)OCc1ccccc1)C1CCCC1 |
| 87 to 89 °C | Cc1cc(S(N)(=O)=O)ccc1-n1nc(C(F)(F)F)cc1-c1ccc(-c2ccco2)cc1 |
| 178 to 179 °C | Cn1c(NC(=N)N)nc2ccccc21 |
| 70 to 84 °C | COc1cc2c(cc1Nc1ncc(Cl)c(Nc3ccccc3S(=O)(=O)N3CCC(O)C3)n1)CCN(CC(=O)N(C)C)CC2 (stereo unspecified) |
